From US12097190B2, “Therapeutic use of levorotatory β-lactams in hematopoiesis, immuno-oncology therapy, and regulation of lipoprotein and apolipoprotein levels” (Alpha-1 Biologics, LLC, priority 2017, dated 2024)

Columns and labels:
[1] = biological target: T1, cell surface human leukocyte elastase (HLE-CS) (Homo sapiens, UniProt P08246); assay: Adherence of U937 cells to compound-coated glass (binding to HLE-CS); assay type: cell-based; details: 2,000 U937 cells added per compound-treated well; for Adherent Cells: at optimal adherence concentration
T1 construct: endogenous in cells
T1 sequence (P08246 30-267): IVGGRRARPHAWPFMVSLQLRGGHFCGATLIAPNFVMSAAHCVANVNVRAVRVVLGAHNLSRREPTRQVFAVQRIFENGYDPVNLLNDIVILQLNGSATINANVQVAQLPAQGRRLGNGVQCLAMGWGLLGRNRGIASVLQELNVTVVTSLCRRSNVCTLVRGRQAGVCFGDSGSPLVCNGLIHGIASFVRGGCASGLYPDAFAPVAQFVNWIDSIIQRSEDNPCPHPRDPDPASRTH
Source text: Adherence is the first step in cell migration and requires […] calcium, magnesium, signaling, or energy. […] […] After washing and fixing the cells, the number of adherent cells were counted microscopically.

[2] = biological target: T2, soluble, granule-associated human leukocyte elastase (HLE-G) (Homo sapiens, UniProt P08246); assay: Inhibition of soluble human leukocyte elastase (HLE-G), SA3NA substrate, 405 nm; assay type: biochemical; details: for IC50: IC50 of compound versus HLE-G (75 μM); for Molar Excess**: Molar excess of compound to HLE-G at IC50
T2 sequence (P08246 30-267): T1 sequence (P08246 30-267)
Experimental: The procedures for measuring the capacity of substances to inhibit soluble forms of elastase or HLE-G are well known to those of ordinary skill in the art (U.S. Pat. No. 6,887,678; Bristow et al., 1998). Briefly, soluble human leukocyte elastase (HLE-G) is incubated for 2 minutes with a test substance, and to this mixture is added the elastase substrate succinic-L-Ala-L-Ala-L-Ala-p-nitroanilide (SA3NA, Sigma-Aldrich). Results are detected by measuring the color change at 405 nm.
Assay 1: Inhibition of HLE (microplate assay, 10 tests per plate) as described in Example 2 above and previously published (Bristow et al., 1998).

[3] = tested on: HIV permissive (plus) clone 10; assay: Adherence assay on coverslips, U937 plus clone 10; assay type: cell-based, human
Experimental: To coverslips prepared with chemoattractants as described above, 10^6 cells in 90 μl HBSS were mixed to uniformity, and incubated for 30 min in humidified 5% CO2 at 37° C. without dehydration. To detect interacting effects of stimulants, cells were delivered in an 80 μl volume to coverslips previously prepared with 10 μl of one stimulant, mixed to uniformity, and incubated for 15 min at 37° C. Subsequently, an additional stimulant was delivered in a 10 μl volume to each coverslip, mixed with pre-incubated cells to uniformity, and incubated for 30-60 min at 37° C. […] Slides were examined by epi-illumination UV microscopy on a Zeiss Axioskop Means and standard deviations were determined by counting adherent cells in at least three fields/coverslip.
Means and standard deviations represent the difference between stimulated and unstimulated adherence. […] Adherence was optimized for each chemoattractant and adherence induced by each chemoattractant was enumerated in more than three separate experiments.

CD4+ T lymphocytes = details: cited from earlier work
[4] = tested on: transplanted human stem cells, transplanted AML cells; details: mouse model; cited from earlier work
[5] = tested on: Human acute myeloid leukemia cells (AML); details: cited from earlier work
elastase = details: inhibition of elastase activity as described in the package insert; cited from earlier work
E. coli DH5-Alpha = assay: Kirby-Bauer Disk Test, zones of inhibition; assay type: cell-based; details: for zone of inhibition at 5000 µM: 5 mM
Experimental: […] At this concentration of cells, bacteria were spread on Mueller-Hinton agar plates. […] After incubation for 16 hours at 37° C., plates were examined for zones of inhibition.

T lymphocytes = assay: Effect on T cell numbers in C57BL6 mice, flow cytometry; assay type: in vivo, mouse; details: 5 mg/kg oral gavage, 2 weeks of treatment, change from baseline
Experimental: Compounds were delivered by oral gavage 5 days per week. Blood was collected weekly for detection of CD3e, CD4, and CD8a T cells by flow cytometry using the mouse T lymphocyte subset antibody cocktail with isotype control (BD Biosciences). The study was performed at the Division of Laboratory Animal Research, Stony Brook University, Stony Brook, N.Y. Staining and statistical analysis was performed by Alpha-1 Biologics, and the samples were acquired by the Flow Cytometry Laboratory, Stony Brook Hospital, using a BD LSRFortessa instrument. […] Data were normally distributed and compared using Student's T-test. Mean % Change in CD3+ T cells for vehicle was −11% and for CD4+CD8+ progenitors was −13%. […] Average percent change from baseline is represented in FIGS. 6A and 6B where % change=100×[(Treatment Mean-Baseline)/Baseline].

U937 Clone 10 cells = assay: Receptor polarization, cell migration and SHIV endocytosis in preconditioned cells; assay type: cell-based, human
Experimental: The procedures for inducing receptor polarization have been described (Bristow et al., 2003).
To examine receptor polarization, microscope slides are prepared by adding serial dilutions of a β-lactams. Cells are added to the microscope slides and incubated for 30 minutes in humidified 5% CO2 at 37° C. Unattached cells are removed by washing, and attached cells are fixed by application of 4% paraformaldehyde after which attached cells are counted by light microscopy and photographed using confocal microscopy
Receptor Polarization: U937 Clone 10 cells were cultured overnight in AIM-V serum-free medium. Cells were pelleted, re-suspended in AIM-V at 2×10^6/ml, and 250 μl (5×10^5 cells) was added to Eppendorf tubes pre-coated to prevent attachment.
Binding and Endocytosis: AT 2 chemically inactivated SHIV preparations, consisting of non-infectious virus with conformationally and functionally intact envelope glycoproteins, were provided by the AIDS Vaccine Program (SAIC Frederick, Frederick, Md.). Cells were pulsed with virus (30 ng p27 or p24 per 10^6 cells) for 2 hr. at 2° C. which allows binding, but prevents endocytosis. Alternatively, cells were pulsed with virus for 2 hr. at 37° C. which allows binding and endocytosis. Following pulsing for 2 hr., cells were mounted on Alcian blue slides for microscopy. The presence of inactivated virus in test cells was detected using dodecameric human CD4+-IgG1 provided by the Laboratory of Immunoregulation, NIAID, NIH. This reagent specifically recognizes conformationally intact HIV 1/SIV envelope gp120. CD4-IgG1 was detected using HRP-conjugated Rb anti-human IgG (Sigma). CD4+ IgG-labeled cells were coupled to Oregon 488 fluorochrome using the tyramide signal amplification system (Life Science Products, Boston, Mass., USA). […] Cells were analyzed using 2 μm scanning from 3B.

LDL = assay: Diet-induced obesity (DIO) mouse model, serum LDL levels; assay type: in vivo; details: week 6, normalized to vehicle
Experimental: The well-known Jackson Laboratory (Bar Harbor, Me.) C57BL/6 Diet-Induced Obesity (DIO) mouse model represents human metabolic syndrome and elevated LDL levels. Mice are fed a high fat diet (60% fat) or normal diet (10% fat) for various periods of time and lipoprotein levels were measured. […] In accordance with a protocol used in a recently conducted human clinical trial (NCT01731691), mouse peripheral blood was collected into blood collection tubes, and serum was analyzed for lipoprotein levels using Beckman Coulter AU680 Chemistry System. In addition, cells were analyzed by flow cytometry to quantitate lymphocyte subsets including CD3, CD4, and CD8. As compared to baseline levels (before treatment), lipoprotein levels (including, but not limited to total cholesterol, HDL, LDL, apoA, apoB, apoC, apoE) and blood cells expressing the above mentioned cellular markers were quantitated to determine changes due to treatment. Diet-induced obesity mice (DIO, Jackson Laboratory) were fed a 60% fat diet for 17 weeks. […] Because mice were maintained on the DIO diet throughout the study, body weight and LDL levels increased in the vehicle control (Group 1). To compare the effectiveness of compounds, mean values within each treatment group were normalized by forming a ratio to mean values of vehicle, and the ratio was expressed as normalized % change using to the formula: 100−(Treatment mean/Vehicle mean*100).

[6] = Escherichia coli, DH5ALPHA, 10 μl per disk, 16 hours at 37° C., read-out: diameter of zone of inhibition

| Compound | Optimal Adherence Concentration (nM)*** [1] | Adherent Cells [1] | IC50 [2] | Molar Excess** [2] | further results |
| --- | --- | --- | --- | --- | --- |
| MAAPVCK [methoxysuccinyl-L-Ala-L-Ala-L-Pro-L-Val-chloromethylketone] |  |  |  |  | stimulation of adherence [3]: stimulated to adhere |
| α1PI: abundant proteinase inhibitor alpha-1 proteinase inhibitor (α1PI, α1 antitrypsin) |  |  |  |  | CD4+ counts (CD4+ T lymphocytes; HIV-1-infected patients with acquired and uninfected patients with inherited α1PI deficiency): caused an increase in CD4+ counts; LDL in subjects (CD4+ T lymphocytes; α1PI treatment): produced decreased LDL; homing of stem cells to and egress of AML cells from bone marrow [4]: inhibited homing of transplanted human stem cells to bone marrow and egress of transplanted AML cells from bone marrow; SDF-1-induced pseudopodia formation ([5]; AML cells): prevented; SDF-1 dependent migration ([5]; pre-incubation of AML cells): significantly reduced |
| PROLASTIN-C®: human α1PI, cryoprecipitate preparation isolated from human plasma (Grifols) |  |  |  |  | specific activity (elastase): 70% |
| CC1(C)S[C@@H]2[C@H](NC(=O)[C@H](N)c3ccccc3)C(=O)N2[C@H]1C(=O)O [D-Ampicillin, Ampicillin] |  |  |  |  | activity in the Kirby-Bauer Disk Test (E. coli DH5-Alpha; 0.5 mM): exhibits activity; zone of inhibition at 500 µM (E. coli DH5-Alpha; Escherichia coli, DH5ALPHA, 0.5 mM, 10 μl per disk, 16 hours at 37° C., read-out: diameter of zone of inhibition): 15 mm; zone of inhibition at 5000 µM (E. coli DH5-Alpha; [6]): 30 mm |
| Phe-Leu-Gly-Phe-Leu (FLGFL; printed: Phe-Leu-Gly-Phe-Leu) [synthetic peptide representative of the HIV fusion domain] |  |  |  |  | stimulation of adherence [3]: stimulated to adhere |
| CC1(C)SC2C(NC(=O)C(N)c3ccccc3)C(=O)N2C1C(=O)O [L-Ampicillin, (2S,5R,6R)-6-((S)-2-amino-2 phenylacetamcido)-3,3-dimethyl-7-oxo-4-thia-1-azabicyclo[3.2.0] heptane-2-acid] |  |  |  |  | activity in the Kirby-Bauer Disk Test (E. coli DH5-Alpha; 0.5 mM): ineffective as an antibiotic; zone of inhibition at 5000 µM (E. coli DH5-Alpha; [6]): 14 mm; Mean % Change in CD3+ T cells (T lymphocytes): +16%; Mean % Change in CD4+CD8+ progenitors (T lymphocytes): +38%; cell motility (morphology by confocal microscopy) (U937 Clone 10 cells): exhibited the morphology of cells undergoing cell motility; receptor polarization (U937 Clone 10 cells): induces receptor polarization; cell migration and endocytosis (SHIV) (U937 Clone 10 cells; FIGS. 3A and 3B): stimulation of cell migration and endocytosis; normalized mean % change in LDL (LDL; 5 mg/kg oral gavage 5 days per week): −41.0±20.5%; normalized mean % change in LDL (LDL; 50 mg/kg oral gavage 5 days per week): 3.7% |
| CC1(C)S[C@@H]2[C@H](NC(=O)COc3ccccc3)C(=O)N2[C@H]1C(=O)O [Pen V, Penicillin V] | 10 nM | 30 ± 4 | 262 µM | 3.5 |  |
| N-tosyl-L-phenylalanine chloromethylketone [TPCK] |  |  |  |  | stimulation of adherence [3]: stimulated to adhere |

The next lines start with results.

| Optimal Adherence Concentration (nM)*** [1] | Adherent Cells [1] | IC50 [2] | Molar Excess** [2] | Compound | further results |
| --- | --- | --- | --- | --- | --- |
| 10 nM | 23 ± 4 | 203 µM | 2.7 | C[C@@H](O)[C@H]1C(=O)N2C(C(=O)O)=C([C@H]3CCCO3)S[C@H]12 [Faropenem] |  |
| 1 nM | 26 ± 9 | 232 µM | 3.1 | Cc1onc(-c2c(Cl)cccc2Cl)c1C(=O)N[C@@H]1C(=O)N2[C@@H]1SC(C)(C)[C@@H]2C(=O)O [Dicloxacillin] |  |
| 100 nM | 52 ± 6 | 178 µM | 2.4 | C[C@@H](O)[C@H]1C(=O)N2C(C(=O)O)=C(S[C@@H]3CN[C@H](CNS(N)(=O)=O)C3)[C@H](C)[C@H]12 [Doripenem] |  |
| 1 nM | 34 ± 8 | 167 µM | 2.2 | CO/N=C(\C(=O)N[C@@H]1C(=O)N2C(C(=O)O)=C(COC(N)=O)CS[C@H]12)c1ccco1 [Cefuroxine, Cefuroxime] |  |
| 100 nM | 40 ± 3 | 277 µM | 3.7 | O=C1[C@H](CC[C@H](O)c2ccc(F)cc2)[C@@H](c2ccc(O)cc2)N1c1ccc(F)cc1 [Ezetimibe] | normalized mean % change in LDL (LDL; 10 mg/kg oral gavage 5 days per week): −43.8±29.6% |
| 1 nM | 54 ± 20 |  |  | CC1(C)S[C@@H]2[C@H](NC(=O)[C@H](N)c3ccc(O)cc3)C(=O)N2[C@H]1C(=O)O [Amoxicillin] |  |
| 10 nM | 27 ± 10 |  |  | CC1=C(C(=O)O)N2C(=O)[C@@H](NC(=O)[C@H](N)c3ccccc3)[C@H]2SC1 [Cephalexin] |  |
| 1 nM | 33 ± 4 | 234 µM | 3.1 | C[C@H]1[C@H](NC(=O)/C(=N\OC(C)(C)C(=O)O)c2csc(N)n2)C(=O)N1S(=O)(=O)O [Aztreonam] |  |
